Measured values: patent US20250129070A1, “BIFUNCTIONAL ANDROGEN RECEPTOR COMPOUNDS” (priority 2023, published 2025)

System: AR / CBP ternary complex
Experiment: Ternary complex formation assay (sandwich ELISA, AR capture / CBP detection) in VCaP cell lysates
Assay type: cell-based
Conditions: 1.5 hours treatment, sandwich ELISA (AR capture, CBP or p300 detection)
Experimental: Preparation of Mouse Anti-AR Antibody Coated 96 Well Plates
Black MaxiSorp plates: coat with 50 μL of mouse 1/50 diluted AR antibody (Monoclonal Antibody (AR 441 from Thermo Fisher); diluted in phosphate buffered saline (PBS). Spin the liquid to the bottom of the wells, if necessary. Incubate overnight at 4° C. Next day, wash 3 times with 200 μL of TBST. Block with 200 μL of blocking buffer (5% BSA in TBST) at room temperature for 2 hours (BSA: A4503 or A2153 from Sigma). Wash plates 3 times with TBST. Plates are ready for lysates Preparation of dimerizer treated lysates
Culture cells in 96 wells at 50K VCaP cells/well for at least 3 days. Plate in 5% Omega charcoal stripped FBS in total volume of 200 uL. Treat with bifunctional for 1.5 hours by adding 1 μL of 200× stock in DMSO. Aspirate media/compound. Add and pipet-to-mix 70 μL of 1× AlphaLisa Lysis Buffer to each well (Perkin Elmer, AlphaLISA SureFire Ultra, diluted in water). Pipet up and down when adding lysis buffer to disrupt cells. Let lysis proceed for 30 min at 4° C.
Incubate for 1 hour at room temperature. Flick out the lysates. Wash 3 times with TBST. Add 75 μL of rabbit CBP or p300 antibody to each well (diluted 1:5000 in blocking buffer (5% BSA in TBST). CBP antibody: (D6C5) Rabbit mAb #7389; p300 antibody: (D8Z4E) Rabbit mAb #86377. Incubate overnight at 4° C. Wash 3 times with 300 uL TBST, each time on shaker for 5-10 min. Prepare goat anti-rabbit antibody conjugated to HRP (1/100K dilution in blocking buffer) Invitrogen Catalog number: 32260. Add 75 μL of HRP-conjugated goat anti-rabbit antibody. Incubate at room temperature for 1 hour. Flick out the HRP-antibody mixture. Wash 7-8 times with TBST, each time on shaker for 10 min. Later washes try to overflow the wells so that no residual HRP remains bound to the sides of the well. Prepare and add 75 uL/well of QuantaRed Enhance Chemifluorescent HRP Substrate solution. Immediately read fluorescence on BMG ClarioStar (ex: 570/em 585), and repeat the read in 5 minutes and 15 minutes.

Compound | EC50 [nM]
CC(=O)N1CCc2c(c(Nc3ccc(-c4cnn(C)c4)cc3F)nn2C2CCN(CCC3CCN(c4ncc(C(=O)NC5C(C)(C)C(Oc6ccc(C#N)c(Cl)c6)C5(C)C)cn4)CC3)C2)C1 (centres unmarked) [Compound 6, 2-[4-[2-[3-[5-acetyl-3-[2-fluoro-4-(1-methylpyrazol-4-yl)anilino]-6,7-dihydro-4H-pyrazolo[4,3-c]pyridin-1-yl]pyrrolidin-1-yl]ethyl]-1-piperidyl]-N-[3-(3-chloro-4-cyano-phenoxy)-2,2,4,4-tetramethyl-cyclobutyl]pyrimidine-5-carboxamide] | > 100
CC(=O)N1CCc2c(c(N3CCCc4cc(-c5cnn(C)c5)c(C(F)F)cc43)nn2C2CN(CCC3CCN(c4ncc(C(=O)NC5C(C)(C)C(Oc6ccc(C#N)c(Cl)c6)C5(C)C)cn4)CC3)C2)C1 (centres unmarked) [Compound 162, 2-[4-[2-[3-[5-acetyl-3-[7-(difluoromethyl)-6-(1-methylpyrazol-4-yl)-3,4-dihydro-2H-quinolin-1-yl]-6,7-dihydro-4H-pyrazolo[4,3-c]pyridin-1-yl]azetidin-1-yl]ethyl]-1-piperidyl]-N-[3-(3-chloro-4-cyano-phenoxy)-2,2,4,4-tetramethyl-cyclobutyl]pyrimidine-5-carboxamide] | < 1
CC(=O)N1CCc2c(c(N3CCCc4cc(-c5cnn(C)c5)c(C(F)F)cc43)nn2CCOc2ncc(C(=O)NC3C(C)(C)C(Oc4ccc(C#N)c(Cl)c4)C3(C)C)cn2)C1 (centres unmarked) [Compound 46, 2-[2-[5-acetyl-3-[7-(difluoromethyl)-6-(1-methylpyrazol-4-yl)-3,4-dihydro-2H-quinolin-1-yl]-6,7-dihydro-4H-pyrazolo[4,3-c]pyridin-1-yl]ethoxy]-N-[3-(3-chloro-4-cyano-phenoxy)-2,2,4,4-tetramethyl-cyclobutyl]pyrimidine-5-carboxamide] | < 1
COc1cc(O[C@H]2C(C)(C)[C@H](NC(=O)c3ccc(N4CCN(C5CN(c6ccc(-c7cc8c(cc7C(F)F)N(c7nn(C9CCOCC9)c9c7CN(C(C)=O)CC9)CCC8)cn6)C5)CC4)cc3)C2(C)C)ccc1C#N [Compound 326, 4-(4-(1-(5-(1-(5-acetyl-1-(tetrahydro-2H-pyran-4-yl)-4,5,6,7-tetrahydro-1H-pyrazolo[4,3-c]pyridin-3-yl)-7-(difluoromethyl)-1,2,3,4-tetrahydroquinolin-6-yl)pyridin-2-yl)azetidin-3-yl)piperazin-1-yl)-N-((1r,3r)-3-(4-cyano-3-methoxyphenoxy)-2,2,4,4-tetramethylcyclobutyl)benzamide] | < 1
CC(=O)N1CCc2c(c(Nc3ccc(-c4cnn(C)c4)cc3F)nn2C2CCN(C3CCN(c4ncc(C(=O)NC5C(C)(C)C(Oc6ccc(C#N)c(Cl)c6)C5(C)C)cn4)CC3)C2)C1 (centres unmarked) [Compound 8, 2-[4-[3-[5-acetyl-3-[2-fluoro-4-(1-methylpyrazol-4-yl)anilino]-6,7-dihydro-4H-pyrazolo[4,3-c]pyridin-1-yl]pyrrolidin-1-yl]-1-piperidyl]-N-[3-(3-chloro-4-cyano-phenoxy)-2,2,4,4-tetramethyl-cyclobutyl]pyrimidine-5-carboxamide] | > 100
CC(=O)N1CCc2c(c(N3CCCc4cc(-c5cnn(C)c5)c(C(F)F)cc43)nn2C2CCN(C(C)C3CCN(c4ncc(C(=O)NC5C(C)(C)C(Oc6ccc(C#N)c(Cl)c6)C5(C)C)cn4)CC3)CC2)C1 (centres unmarked) [Compound 113, 2-[4-[1-[4-[5-acetyl-3-[7-(difluoromethyl)-6-(1-methylpyrazol-4-yl)-3,4-dihydro-2H-quinolin-1-yl]-6,7-dihydro-4H-pyrazolo[4,3-c]pyridin-1-yl]-1-piperidyl]ethyl]-1-piperidyl]-N-[3-(3-chloro-4-cyano-phenoxy)-2,2,4,4-tetramethyl-cyclobutyl]pyrimidine-5-carboxamide] | < 1
CC(=O)N1CCc2c(c(N3CCCc4cc(-c5cnn(C)c5)c(C)cc43)nn2C2CN(CCC3CCN(c4ncc(C(=O)NC5C(C)(C)C(Oc6ccc(C#N)c(Cl)c6)C5(C)C)cn4)CC3)C2)C1 (centres unmarked) [Compound 160, 2-[4-[2-[3-[5-acetyl-3-[7-methyl-6-(1-methylpyrazol-4-yl)-3,4-dihydro-2H-quinolin-1-yl]-6,7-dihydro-4H-pyrazolo[4,3-c]pyridin-1-yl]azetidin-1-yl]ethyl]-1-piperidyl]-N-[3-(3-chloro-4-cyano-phenoxy)-2,2,4,4-tetramethyl-cyclobutyl]pyrimidine-5-carboxamide] | > 100

The remaining lines, values ahead:

EC50 [nM] | Compound
< 1 | COc1cc(OC2C(C)(C)C(NC(=O)c3ccc(N4CCC[C@@H](N5CCC(n6nc(N7CCCc8cc(-c9cnn(C)c9)c(C(F)F)cc87)c7c6CCN(C(C)=O)C7)CC5)C4)cc3)C2(C)C)ccc1C#N (stereo partly drawn) [Compound 400, 4-[(3R)-3-[4-[5-acetyl-3-[7-(difluoromethyl)-6-(1-methylpyrazol-4-yl)-3,4-dihydro-2H-quinolin-1-yl]-6,7-dihydro-4H-pyrazolo[4,3-c]pyridin-1-yl]-1-piperidyl]-1-piperidyl]-N-[3-(4-cyano-3-methoxy-phenoxy)-2,2,4,4-tetramethyl-cyclobutyl]benzamide]
< 1 | COc1cc(OC2C(C)(C)C(NC(=O)c3ccc(N4CC(N5CC6(CCC(n7nc(N8CCCc9cc(-c%10cnn(C)c%10)c(C(F)F)cc98)c8c7CCN(C(C)=O)C8)CC6)C5)C4)cc3)C2(C)C)ccc1C#N (centres unmarked) [Compound 370, 4-[3-[7-[5-acetyl-3-[7-(difluoromethyl)-6-(1-methylpyrazol-4-yl)-3,4-dihydro-2H-quinolin-1-yl]-6,7-dihydro-4H-pyrazolo[4,3-c]pyridin-1-yl]-2-azaspiro[3.5]nonan-2-yl]azetidin-1-yl]-N-[3-(4-cyano-3-methoxy-phenoxy)-2,2,4,4-tetramethyl-cyclobutyl]benzamide]
< 1 | CC(=O)N1CCc2c(c(N3CCCc4cc(-c5cnn(C)c5)c(C(F)F)cc43)nn2C2CCC3(CCCN(C4CN(c5ncc(C(=O)NC6C(C)(C)C(Oc7ccc(C#N)c(Cl)c7)C6(C)C)cn5)C4)C3)CC2)C1 (centres unmarked) [Compound 414, 2-[3-[9-[5-acetyl-3-[7-(difluoromethyl)-6-(1-methylpyrazol-4-yl)-3,4-dihydro-2H-quinolin-1-yl]-6,7-dihydro-4H-pyrazolo[4,3-c]pyridin-1-yl]-2-azaspiro[5.5]undecan-2-yl]azetidin-1-yl]-N-[3-(3-chloro-4-cyano-phenoxy)-2,2,4,4-tetramethyl-cyclobutyl]pyrimidine-5-carboxamide]
< 1 | COc1cc(OC2C(C)(C)C(NC(=O)c3ccc(N4CC5(CCC(N6CCC(n7nc(N8CCCc9cc(-c%10cn(C)cn%10)c(C(F)F)cc98)c8c7CCN(C(C)=O)C8)CC6)CC5)C4)cc3)C2(C)C)ccc1C#N (centres unmarked) [Compound 426, 4-[7-[4-[5-acetyl-3-[7-(difluoromethyl)-6-(1-methylimidazol-4-yl)-3,4-dihydro-2H-quinolin-1-yl]-6,7-dihydro-4H-pyrazolo[4,3-c]pyridin-1-yl]-1-piperidyl]-2-azaspiro[3.5]nonan-2-yl]-N-[3-(4-cyano-3-methoxy-phenoxy)-2,2,4,4-tetramethyl-cyclobutyl]benzamide]
> 100 | CC(=O)N1CCc2c(c(N3CCCc4cc(-c5cnn(C)c5)c(C(F)F)cc43)nn2C2CCC3(CC2)CCN(c2ncc(C(=O)NC4C(C)(C)C(Oc5ccc(C#N)c(Cl)c5)C4(C)C)cn2)C3)C1 (centres unmarked) [Compound 408, 2-[8-[5-acetyl-3-[7-(difluoromethyl)-6-(1-methylpyrazol-4-yl)-3,4-dihydro-2H-quinolin-1-yl]-6,7-dihydro-4H-pyrazolo[4,3-c]pyridin-1-yl]-2-azaspiro[4.5]decan-2-yl]-N-[3-(3-chloro-4-cyano-phenoxy)-2,2,4,4-tetramethyl-cyclobutyl]pyrimidine-5-carboxamide]
10 to 100 | COc1cc(OC2C(C)(C)C(NC(=O)c3ccc(N4CCC5(CCC(n6nc(N7CCCc8cc(-c9cnn(C)c9)c(C(F)F)cc87)c7c6CCN(C(C)=O)C7)CC5)C4)cc3)C2(C)C)ccc1C#N (centres unmarked) [Compound 405, 4-[8-[5-acetyl-3-[7-(difluoromethyl)-6-(1-methylpyrazol-4-yl)-3,4-dihydro-2H-quinolin-1-yl]-6,7-dihydro-4H-pyrazolo[4,3-c]pyridin-1-yl]-2-azaspiro[4.5]decan-2-yl]-N-[3-(4-cyano-3-methoxy-phenoxy)-2,2,4,4-tetramethyl-cyclobutyl]benzamide]
< 1 | CC(=O)N1CCc2c(c(N3CCCc4cc(-c5cnn(C)c5)c(C(F)F)cc43)nn2C2CCN(C3CC4(CCN(c5ncc(C(=O)NC6C(C)(C)C(Oc7ccc(C#N)c(Cl)c7)C6(C)C)cn5)C4)C3)CC2)C1 (centres unmarked) [Compound 346, 2-[2-[4-[5-acetyl-3-[7-(difluoromethyl)-6-(1-methylpyrazol-4-yl)-3,4-dihydro-2H-quinolin-1-yl]-6,7-dihydro-4H-pyrazolo[4,3-c]pyridin-1-yl]-1-piperidyl]-6-azaspiro [3.4]octan-6-yl]-N-[3-(3-chloro-4-cyano-phenoxy)-2,2,4,4-tetramethyl-cyclobutyl]pyrimidine-5-carboxamide]
